In patent publication US4220644A, “7-Acylamino-3-(substituted tetrazolyl thiomethyl) cephalosporins” (SmithKline Corporation, priority 1976, dated 1980):
Values after ≈ are worked out from the molar mass of the structure shown. Where two headings read alike, the source gives them in different places.

Experiments:
[1] = system: S. aureus HH 127; experiment: MIC in vitro (Table 1), S. aureus HH 127; assay type: cell-based; settings: Staphylococcus aureus, HH127, in vitro, S. aureus HH 127; read-out: MIC
From the text: (§1) Compound names corresponding to numbers are given in the experimental section. For comparative purposes, data for cephamandole, which is 7-mandelamido-3-(1-methyltetrazol-5-ylthiomethyl)-3-cephem-4-carboxylic acid, is also given in Tables 1 and 2.

[2] = system: S. aureus SK 23390; experiment: MIC in vitro (Table 1), S. aureus SK 23390; assay type: cell-based; settings: S. aureus SK 23390
From the text: as §1

[3] = system: S. villaluz; experiment: MIC in vitro (Table 1), S. villaluz; assay type: cell-based; settings: read-out: MIC
From the text: as §1, with “The compounds of Formula I have antibacterial activity against both Gram-positive and Gram-negative organisms. […] Compound” for “Compound”

[4] = system: Strep. Faecalis HH 34358; experiment: MIC in vitro (Table 1), Strep. Faecalis HH 34358; assay type: cell-based; settings: Enterococcus faecalis, in vitro, Strep. Faecalis HH 34358; read-out: MIC
From the text: as §1

[5] = system: E. coli SK 12140; experiment: MIC in vitro (Table 1), E. coli SK 12140; assay type: cell-based; settings: Escherichia coli, SK12140, in vitro, read-out: MIC
From the text: as §1

[6] = system: E. coli HH 33779; experiment: MIC in vitro (Table 1), E. coli HH 33779; assay type: cell-based; settings: Escherichia coli, HH33779, in vitro, E. coli HH 33779; read-out: MIC
From the text: as §1

[7] = system: Kleb. pneumo. SK 4200; experiment: MIC in vitro (Table 1), Kleb. pneumo. SK 4200; assay type: cell-based; settings: in vitro, Kleb. pneumo. SK 4200; read-out: MIC
From the text: as §1

[8] = system: Kleb. pneumo. SK 1200; experiment: MIC in vitro (Table 1), Kleb. pneumo. SK 1200; assay type: cell-based
From the text: as §1

[9] = system: Pseudo. sp. HH 63; experiment: MIC in vitro (Table 1), Pseudo. sp. HH 63; assay type: cell-based; settings: in vitro, Pseudo. sp. HH 63; read-out: MIC
From the text: as §1, with “The compounds of Formula I have antibacterial activity against both Gram-positive and Gram-negative organisms. […] Compound” for “Compound”

[10] = system: Salmonella ATCC 12176; experiment: MIC in vitro (Table 1), Salmonella ATCC 12176; assay type: cell-based
From the text: as §1, with “The compounds of Formula I have antibacterial activity against both Gram-positive and Gram-negative organisms. […] Compound” for “Compound”

[11] = system: Shigella HH 117; experiment: MIC in vitro (Table 1), Shigella HH 117; assay type: cell-based
From the text: as §1, with “The compounds of Formula I have antibacterial activity against both Gram-positive and Gram-negative organisms. […] Compound” for “Compound”

[12] = system: Entero. aerog. ATCC 13048; experiment: MIC in vitro (Table 1), Entero. aerog. ATCC 13048; assay type: cell-based; settings: in vitro, Entero. aerog. ATCC 13048; read-out: MIC
From the text: as §1

[13] = system: Serra. Marc. ATCC 13880; experiment: MIC in vitro (Table 1), Serra. Marc. ATCC 13880; assay type: cell-based; settings: in vitro, Serra. Marc. ATCC 13880; read-out: MIC
From the text: as §1

[14] = system: Entero. cloacae HH 31254; experiment: MIC in vitro (Table 1), Entero. cloacae HH 31254; assay type: cell-based; settings: Enterobacter cloacae
From the text: as §1

[15] = system: Proteus morgani 179; experiment: MIC in vitro (Table 1), Proteus morgani 179; assay type: cell-based
From the text: as §1

[16] = system: E. coli 12140; experiment: In vivo mouse protection (Table 2), E. coli 12140
From the text: as §1

[17] = system: Kleb. pneumo. 4200; experiment: In vivo mouse protection (Table 2), Kleb. pneumo. 4200
From the text: as §1

Which MIC [1] does the source give for `NC(=O)Cn1nnnc1SCC1=C(C(=O)O)N2C(=O)C(NC(=O)[C@H](O)c3ccccc3)[C@H]2SC1` (stereo partly drawn) [V, 7-D-Mandelamido-3-(1-carbamoylmethyltetrazol-5-ylthiomethyl)-3-cephem-4-carboxylic acid] here?
The MIC was 1.6 µg/mL (≈ 3.16 µM).

What about the MIC ([2]; Staphylococcus aureus, SK23390, in vitro, read-out: MIC) of the same compound?
The MIC was 3.1 µg/mL (≈ 6.13 µM).

And the MIC ([2]; in vitro)?
Its MIC is 1.6 µg/mL (≈ 3.16 µM).

And the MIC [3]?
The MIC was 25 µg/mL (≈ 49.5 µM).

What about the MIC [4] of the same compound?
Its MIC is 25 µg/mL (≈ 49.5 µM).

What about the MIC [5] of the same compound?
Its MIC is 0.8 µg/mL (≈ 1.58 µM).

What about the MIC [6] of the same compound?
Its MIC is 1.6 µg/mL (≈ 3.16 µM).

What about the MIC [7] of the same compound?
The MIC was 1.6 µg/mL (≈ 3.16 µM).

What about the MIC [8] of the same compound?
The MIC was 0.4 µg/mL (≈ 0.791 µM).

What about the MIC ([8]; read-out: MIC) of the same compound?
Its MIC is 0.8 µg/mL (≈ 1.58 µM).

What about the MIC [9] of the same compound?
The MIC was over 200 µg/mL.

And the MIC ([10]; Salmonella, ATCC12176, in vitro, read-out: MIC)?
Its MIC is 0.8 µg/mL (≈ 1.58 µM).

What about the MIC ([10]; in vitro) of the same compound?
Its MIC is 0.4 µg/mL (≈ 0.791 µM).

What about the MIC ([11]; Shigella, HH117, in vitro, read-out: MIC) of the same compound?
Its MIC is 0.2 µg/mL (≈ 0.396 µM).

What about the MIC ([11]; in vitro) of the same compound?
The MIC was 0.4 µg/mL (≈ 0.791 µM).

What about the MIC [12] of the same compound?
Its MIC is 1.6 µg/mL (≈ 3.16 µM).

What about the MIC [13] of the same compound?
Its MIC is 12.5 µg/mL (≈ 24.7 µM).

And the MIC ([14]; HH31254)?
The MIC was 0.4 µg/mL (≈ 0.791 µM).

What about the MIC ([14]; HH31254, in vitro, Entero. cloacae HH 31254, read-out: MIC) of the same compound?
Its MIC is 0.8 µg/mL (≈ 1.58 µM).

What about the MIC [15] of the same compound?
Its MIC is 1.6 µg/mL (≈ 3.16 µM).

What about the MIC ([15]; read-out: MIC) of the same compound?
Its MIC is 3.1 µg/mL (≈ 6.13 µM).

What about the ED50 ([16]; Escherichia coli, 12140, po, E. coli 12140, p.o.) of the same compound?
Its ED50 is 50 mg/kg.

What about the ED50 ([16]; Escherichia coli, 12140, sc, E. coli 12140, s.c.) of the same compound?
Its ED50 is 1.56 mg/kg.

And the ED50 ([17]; po, Kleb. pneumo. 4200, p.o.)?
The ED50 was 21.2 mg/kg.

What about the ED50 ([17]; sc, Kleb. pneumo. 4200, s.c.) of the same compound?
The ED50 was 1.3 mg/kg.
